Results: patent US11925630B1, “6′-(2-bromophenyl)-2′-methoxy-3,4′-bipyridine-3′-carbonitrile as an antioxidant compound” (KING FAISAL UNIVERSITY, priority 2023, dated 2024)

Assay: DPPH radical scavenging antioxidant test
Type: biochemical
Details: 517 nm; for Inhibition (radical scavenging inhibition): 0.2 mL DPPH (0.75 mM), compound 3 μM in ethanol, 30 minutes in the dark
Experimental: The antioxidant activity of 6′-(2-bromophenyl)-2′-methoxy-3,4′-bipyridine-3′-carbonitrile was investigated by 2,2-diphenyl-1-picrylhydrazyl (DPPH) in vitro tests that employ vitamin C as the positive control.
The antioxidant properties of the 6′-(2-bromophenyl)-2′-methoxy-3,4′-bipyridine-3′-carbonitrile compound were studied by adding 0.2 mL DPPH (0.75 mM)) to 6′-(2-bromophenyl)-2′-methoxy-3,4′-bipyridine-3′-carbonitrile (3 μM) (4) in ethanol. After 30 minutes of incubation in the dark, the absorbance was read against a blank at 517 nm. Ascorbic acid (vitamin C) was used as standard antioxidants (positive control). A blank sample was prepared by 0.2 mL of DPPH in 3 mL ethanol. A negative control sample was run using ethanol instead of the sample. The radical scavenging inhibition was calculated using the following equation: […]
The antioxidant activity for the synthesized compound is listed in Table 1, using Vitamin C as a reference.

SMILES: O=C1O[C@H]([C@@H](O)CO)C(O)=C1O [vit c, Ascorbic acid, reference compound]
- Inhibition (radical scavenging inhibition): 74%

SMILES: COc1nc(-c2ccccc2Br)cc(-c2cccnc2)c1C#N [Product 4, 6′-(2-bromophenyl)-2′-methoxy-3,4′-bipyridine-3′-carbonitrile]
- Inhibition (radical scavenging inhibition): 50%
- antioxidant potential compared to vitamin C (in words) (DPPH in vitro test, vitamin C as positive control): high potential as an antioxidant
